# According to patent US5475010A, “7'-amino-naphthazarin antibiotic derivatives” (Gruppo Lepetit S.p.A., priority 1991, dated 1995):
# Where a name gives a salt, the structure may show the parent alone. Read-outs that look alike come from different tables or passages of the source.
# Columns and labels:
# [1] = system: Staphilococcus aureus Tour; experiment: MIC by broth microdilution, Staphylococcus aureus Tour; format: cell-based; conditions: Iso-Sensitest broth, 37° C., 20-24 h, air
# [2] = system: Haemophilus influenzae type b ATCC 19418; experiment: MIC by broth microdilution, Haemophilus influenzae; format: cell-based; conditions: ATCC19418, Table 2, internal code 970, approx. 10^4 cfu/ml, Brain Heart infusion broth + 1% Supplement C, 37° C., 48 h, 5% CO2
# [3] = system: Pseudomonas aeruginosa ATCC 10145; experiment: MIC by broth microdilution, Pseudomonas aeruginosa; format: cell-based; conditions: ATCC10145, Table 2, internal code 4, approx. 10^4 cfu/ml, Iso-Sensitest broth, 37° C., 20-24 h, air
# [4] = system: Streptococcus pyogenes C 203; experiment: MIC by broth microdilution, Streptococcus pyogenes; format: cell-based
# [5] = system: Proteus vulgaris X19H ATCC 881; experiment: MIC by broth microdilution, Proteus vulgaris; format: cell-based
# [6] = system: Staphilococcus epidermidis ATCC 12228; experiment: MIC by broth microdilution, Staphylococcus epidermidis; format: cell-based
# [7] = system: Neisseria gonorrhoeae ISM 68/126; experiment: MIC by broth microdilution, Neisseria gonorrhoeae; format: cell-based; conditions: ISM68/126, Table 2, internal code 997, approx. 10^4 cfu/ml, GC Base broth + 1% IsoVitaleX, 37° C., 48 h, 5% CO2
# [8] = system: Candida albicans SKF 2270; experiment: MIC by broth microdilution, Candida albicans; format: cell-based; conditions: Table 2; internal code 145; approx. 10^4 cfu/ml; buffered Yeast Nitrogen Base broth + glucose + L-asparagine; 37° C., 20-24 h, air
# [9] = system: Streptococcus pneumonieae UC 41; experiment: MIC by broth microdilution, Streptococcus pneumoniae; format: cell-based; conditions: UC41
# [10] = system: Bacteroides fragiles ATCC 9689; experiment: MIC by broth microdilution, Bacteroides fragilis; format: cell-based; conditions: ATCC9689, Table 2, internal code 1010, approx. 10^4 cfu/ml, Wilkins-Chalgren broth, 37° C., 48 h, N2-CO2-H2 (80:10:10)
# [11] = system: Staphilococcus haemolyticus (clin. isolate); experiment: MIC by broth microdilution, Staphylococcus haemolyticus; format: cell-based
# [12] = system: Escherichia coli SKF 12140; experiment: MIC by broth microdilution, Escherichia coli; format: cell-based; conditions: SKF12140
# [13] = system: Enterococcus faecalis ATCC 7080; experiment: MIC by broth microdilution, Enterococcus faecalis; format: cell-based
# [14] = system: Tricophyton mentagrophytes; experiment: MIC by broth microdilution, Trichophyton mentagrophytes; format: cell-based; conditions: 72 h
# [15] = system: Propionibacterium acnes ATCC 6919; experiment: MIC by broth microdilution, Propionibacterium acnes; format: cell-based; conditions: Cutibacterium acnes
# [16] = system: Clostridium perfringens ISS 30543; experiment: microbe, parasite or virus in culture; format: cell-based; conditions: ISS30543, 48 h
# [17] = system: Gram-positive and Gram-negative bacteria; conditions: in vitro; known / U.S. Pat. No. 3,914,257; cited from earlier work
# [18] = Table 2, internal code 165, + 30% bovine serum
# [19] = Table 2, internal code 165, inoculum 10^6 cfu/ml
# [20] = Table 2, internal code 165, inoculum approx. 10^4 cfu/ml
# [21] = ATCC6919, Table 2, internal code 1014, approx. 10^4 cfu/ml, Wilkins-Chalgren broth, 37° C., 48 h, N2-CO2-H2 (80:10:10), read-out: MIC
Compound,"MIC [1, 18] [µg/mL]","MIC [1, 19] [µg/mL]","MIC [1, 20] [µg/mL]",MIC [3] [µg/mL],MIC ([5]; ATCC881) [µg/mL],MIC [9] [µg/mL],MIC [10] [µg/mL],MIC [12] [µg/mL],MIC [14] [µg/mL],MIC ([4]; C203) [µg/mL],MIC ([6]; ATCC12228) [µg/mL],"MIC ([15]; ATCC6919, 48 h) [µg/mL]",MIC [11] [µg/mL],MIC ([13]; ATCC7080) [µg/mL],MIC [16] [µg/mL],also measured
"CCCNC1=CC(=O)c2c(O)c3c(c(O)c2C1=O)OC1(C3)CC(O)c2cc3cc(C(=O)OC)oc(=O)c3c(O)c2O1 (stereo not shown) [Example 12, 7'-propylamino purpuromycin]",2,0.03,0.03,128,128,0.03,0.03,> 128,128,,,,,,,"MIC [2]: 0.13 µg/mL; MIC ([4]; C203, Table 2, internal code 49, approx. 10^4 cfu/ml, Todd Hewitt broth, 37° C., 20-24 h, air, read-out: MIC): 0.13 µg/mL; MIC ([6]; ATCC12228, Table 2, internal code 147, approx. 10^4 cfu/ml, Iso-Sensitest broth, 37° C., 20-24 h, air, read-out: MIC): 0.016 µg/mL; MIC [7]: 0.06 µg/mL; MIC [8]: 64 µg/mL; MIC ([11]; Table 2, internal code 602, approx. 10^4 cfu/ml, Iso-Sensitest broth, 37° C., 20-24 h, air, read-out: MIC): 0.06 µg/mL; MIC ([13]; ATCC7080, Table 2, internal code 149, approx. 10^4 cfu/ml, Iso-Sensitest broth, 37° C., 20-24 h, air, read-out: MIC): 0.06 µg/mL"
"COC(=O)c1cc2cc3c(c(O)c2c(=O)o1)OC1(Cc2c(O)c4c(c(O)c2O1)C(=O)C(NCCN)=CC4=O)CC3O (stereo not shown) [Example 19, 7'-(2-aminoethylen)-amino purpuromycin trifluoroacetate]",8,1,1,> 128,,1,> 128,> 128,> 128,2,1,0.5,1,2,0.5,"MIC ([5]; ATCC881, Table 2, internal code 79, approx. 10^4 cfu/ml, Iso-Sensitest broth, 37° C., 20-24 h, air, read-out: MIC): > 128 µg/mL"
"COC(=O)c1cc2cc3c(c(O)c2c(=O)o1)OC1(Cc2c(O)c4c(c(O)c2O1)C(=O)C(NCCNC(=O)OC(C)(C)C)=CC4=O)CC3O (stereo not shown) [Example 18, 7'-(2-(N--BOC-amino)ethylen)-amino purpuromycin]",2,0.13,0.13,> 128,> 128,0.06,0.5,> 128,> 128,0.13,0.06,0.016,0.06,0.13,0.25,
"COC(=O)c1cc2cc3c(c(O)c2c(=O)o1)OC1(Cc2c(O)c4c(c(O)c2O1)C(=O)C(NCC(F)(F)F)=CC4=O)CC3O (stereo not shown) [Example 23, 7'-(2,2,2-trifluoroethylen)-amino purpuromycin]",2,0.03,0.016,> 128,> 128,0.06,0.06,> 128,> 128,0.13,0.016,,0.016,0.03,0.03,"MIC [15, 21]: 0.008 µg/mL"
"COC(=O)c1cc2cc3c(c(O)c2c(=O)o1)OC1(Cc2c(O)c4c(c(O)c2O1)C(=O)C(NCCO)=CC4=O)CC3O (stereo not shown) [Example 21, 7'-(2-hydroxyethylen)-amino purpuromycin]",1,0.13,0.06,≥ 128,≥ 128,0.016,0.13,≥ 128,≥ 128,0.03,0.06,,0.13,0.06,,"MIC [15, 21]: 0.004 µg/mL"
"COC(=O)c1cc2cc3c(c(O)c2c(=O)o1)OC1(Cc2c(O)c4c(c(O)c2O1)C(=O)C(NCC#N)=CC4=O)CC3O (stereo not shown) [Example 16, 7'-(cyanomethylen)amino purpuromycin]",2,0.13,0.13,> 128,> 128,0.03,0.5,> 128,128,0.13,0.13,0.016,0.13,0.13,0.13,
COC(=O)c1cc2cc3c(c(O)c2c(=O)o1)OC1(CC3)Cc2c(O)c3c(c(O)c2O1)C(=O)C(OC)=CC3=O (stereo not shown) [γ-Rubromycin],,,,,,,,,,,,,,,,antimicrobial activity against Gram-positive and Gram-negative bacteria [17]: known antimicrobial agents against Gram-positive and Gram-negative bacteria
